ChEMBL document CHEMBL1138734, “Modulation of binding strength in several classes of active site inhibitors of acetylcholinesterase studied by comparative binding energy analysis” (J Med Chem, 2004)

Assays:
Acetylcholinesterase [1] = target: T1, Acetylcholinesterase (Homo sapiens, UniProt P22303)
Description: In vitro inhibitory activity against human erythrocyte acetylcholinesterase

Acetylcholinesterase [2] = target: T1, Acetylcholinesterase; test: Inhibitory activity against of human erythrocyte acetylcholinesterase
Acetylcholinesterase [3] = target: T1, Acetylcholinesterase; remark: listed apart in the source
Description: Inhibitory activity against human erythrocyte acetylcholinesterase

Acetylcholinesterase [4] = target: T2, Acetylcholinesterase (Bos taurus, UniProt P23795)
T2 sequence (P23795 whole entry): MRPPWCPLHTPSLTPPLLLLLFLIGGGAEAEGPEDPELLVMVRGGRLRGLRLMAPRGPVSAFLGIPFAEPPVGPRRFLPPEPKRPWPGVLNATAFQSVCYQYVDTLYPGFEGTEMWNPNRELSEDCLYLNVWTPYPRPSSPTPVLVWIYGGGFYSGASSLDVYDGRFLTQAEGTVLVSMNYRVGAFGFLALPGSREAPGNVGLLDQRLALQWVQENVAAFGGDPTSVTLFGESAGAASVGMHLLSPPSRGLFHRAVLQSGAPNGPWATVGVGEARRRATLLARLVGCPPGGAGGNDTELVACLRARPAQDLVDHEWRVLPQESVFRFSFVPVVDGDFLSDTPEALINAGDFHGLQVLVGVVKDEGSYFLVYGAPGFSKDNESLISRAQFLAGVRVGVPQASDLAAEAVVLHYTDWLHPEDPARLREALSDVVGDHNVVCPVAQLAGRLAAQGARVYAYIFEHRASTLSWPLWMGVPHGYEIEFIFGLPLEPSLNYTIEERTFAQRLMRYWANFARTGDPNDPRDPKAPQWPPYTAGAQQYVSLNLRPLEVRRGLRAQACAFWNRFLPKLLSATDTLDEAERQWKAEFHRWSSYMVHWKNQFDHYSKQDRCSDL
Description: In vitro inhibitory activity against bovine acetylcholinesterase

T1 sequence (P22303 whole entry): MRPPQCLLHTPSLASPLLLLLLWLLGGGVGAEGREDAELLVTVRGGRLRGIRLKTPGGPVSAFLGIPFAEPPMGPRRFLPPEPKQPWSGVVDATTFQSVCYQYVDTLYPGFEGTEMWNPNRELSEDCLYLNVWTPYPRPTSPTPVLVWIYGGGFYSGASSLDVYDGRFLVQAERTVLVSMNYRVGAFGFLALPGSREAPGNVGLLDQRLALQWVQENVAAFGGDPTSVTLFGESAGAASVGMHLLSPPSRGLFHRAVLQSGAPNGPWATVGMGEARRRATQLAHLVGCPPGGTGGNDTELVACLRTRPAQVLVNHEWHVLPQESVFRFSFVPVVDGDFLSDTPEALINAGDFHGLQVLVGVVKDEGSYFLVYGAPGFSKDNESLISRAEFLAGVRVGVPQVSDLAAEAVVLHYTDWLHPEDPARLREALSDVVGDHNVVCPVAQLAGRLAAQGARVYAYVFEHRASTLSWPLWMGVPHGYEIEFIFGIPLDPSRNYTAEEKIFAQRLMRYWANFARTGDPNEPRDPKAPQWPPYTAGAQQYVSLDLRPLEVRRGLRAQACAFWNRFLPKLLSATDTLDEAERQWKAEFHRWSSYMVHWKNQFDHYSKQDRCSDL

Nc1c2c(nc3ccc(O)cc13)CCCC2
IC50 (Acetylcholinesterase [1]): 162 nM

NC1=C2CCCCC2=NC2CCCCC12 (stereo not given)
IC50 (Acetylcholinesterase [2]): 363 nM

C=C1c2c(Cl)cccc2N=C2CCCCCN12
IC50 (Acetylcholinesterase [3]): 1700 nM

Nc1c2c(nc3cccc(F)c13)CCCC2
IC50 (Acetylcholinesterase [3]): 79.4 nM

C=C1c2cccc(Cl)c2N=C2CCCCCN12
IC50 (Acetylcholinesterase [3]): 1510 nM

C=C1c2ccc(Cl)cc2N=C2CCCCCN12
IC50 (Acetylcholinesterase [3]): 158 nM

S=c1c2ccc(Cl)cc2nc2n1CCCCC2
IC50 (Acetylcholinesterase [3]): > 100000 nM

C=C1c2ccccc2N=C2CCCCCN12
IC50 (Acetylcholinesterase [3]): 3720 nM

O=c1c2ccc(Cl)cc2nc2n1CCCCC2
IC50 (Acetylcholinesterase [3]): > 100000 nM

CCC1=CC2Cc3nc4cc(Cl)ccc4c(N)c3C(C1)C2 (stereo not given)
IC50 (Acetylcholinesterase [4]): 1.29 nM | IC50 (Acetylcholinesterase [3]): 0.324 nM

Nc1c2c(nc3cccc(F)c13)C1CC(C2)C1
IC50 (Acetylcholinesterase [1]): 28.8 nM

C=C1c2cc(Cl)ccc2N=C2CCCCCN12
IC50 (Acetylcholinesterase [3]): 501 nM

Nc1c2c(nc3ccc(Cl)cc13)OCCC2
IC50 (Acetylcholinesterase [3]): 10000 nM

Nc1c2c(nc3cnccc13)OCCC2
IC50 (Acetylcholinesterase [3]): 41700 nM
